Source: ChEMBL document CHEMBL1649565, “Besifloxacin, a novel fluoroquinolone, has broad-spectrum in vitro activity against aerobic and anaerobic bacteria” (Antimicrob Agents Chemother, 2009)
≈ marks a conversion by molar mass, not a printed value. Calls of active or inactive are those of the source. The calls are words filed in the database; no cut-off is given here.

How the values were obtained:
Format in all cases: functional
Listeria monocytogenes [1] = assay: Antibacterial activity against Listeria monocytogenes assessed as percent susceptible isolates by CLSI M100-S18 method
Streptococcus pneumoniae [2] = assay: Antibacterial activity against non-levofloxacin susceptible Streptococcus pneumoniae assessed as percent susceptible isolates by CLSI M100-S18 method
Streptococcus sanguinis [3] = assay: Antibacterial activity against Streptococcus sanguinis by CLSI M100-S18 method
Haemophilus influenzae [4] = assay: Antibacterial activity against ciprofloxacin-susceptible Haemophilus influenzae assessed as percent susceptible isolates by CLSI M7-A7 method
Streptococcus oralis [5] = assay: Antibacterial activity against Streptococcus oralis assessed as percent susceptible isolates by CLSI M100-S18 method
Streptococcus mitis [6] = assay: Antibacterial activity against Streptococcus mitis by CLSI M100-S18 method
Streptococcus anginosus [7] = assay: Antibacterial activity against Streptococcus anginosus assessed as percent susceptible isolates by CLSI M100-S18 method
Neisseria meningitidis [8] = assay: Antibacterial activity against Neisseria meningitidis by CLSI M7-A7 method
[9] = system: Streptococcus constellatus; assay: Antibacterial activity against Streptococcus constellatus assessed as percent susceptible isolates by CLSI M100-S18 method
Listeria monocytogenes [10] = assay: Antibacterial activity against Listeria monocytogenes by CLSI M100-S18 method
Streptococcus salivarius [11] = assay: Antibacterial activity against Streptococcus salivarius assessed as percent susceptible isolates by CLSI M100-S18 method
Streptococcus equinus [12] = assay: Antibacterial activity against Streptococcus bovis by CLSI M100-S18 method
Haemophilus influenzae [13] = assay: Antibacterial activity against non-ciprofloxacin-susceptible Haemophilus influenzae by CLSI M7-A7 method
Streptococcus equinus [14] = assay: Antibacterial activity against Streptococcus bovis assessed as percent susceptible isolates by CLSI M100-S18 method
Streptococcus oralis [15] = assay: Antibacterial activity against Streptococcus oralis by CLSI M100-S18 method
Haemophilus influenzae [16] = assay: Antibacterial activity against non-ciprofloxacin-susceptible Haemophilus influenzae assessed as percent susceptible isolates by CLSI M7-A7 method
[17] = Antibacterial activity against Lancefield Streptococcus sp. 'group C' by CLSI M100-S18 method
Streptococcus mitis [18] = assay: Antibacterial activity against Streptococcus mitis assessed as percent susceptible isolates by CLSI M100-S18 method
Streptococcus sp. = assay: Antibacterial activity against Lancefield Streptococcus sp. group F by CLSI M100-S18 method
[19] = system: Streptococcus intermedius; assay: Antibacterial activity against Streptococcus intermedius assessed as percent susceptible isolates by CLSI M100-S18 method
Streptococcus pneumoniae [20] = assay: Antibacterial activity against levofloxacin susceptible Streptococcus pneumoniae assessed as percent susceptible isolates by CLSI M100-S18 method
Streptococcus sanguinis [21] = assay: Antibacterial activity against Streptococcus sanguinis assessed as percent susceptible isolates by CLSI M100-S18 method
Streptococcus pneumoniae [22] = assay: Antibacterial activity against levofloxacin-susceptible Streptococcus pneumoniae by CLSI M100-S18 method
Haemophilus influenzae [23] = assay: Antibacterial activity against ciprofloxacin-susceptible Haemophilus influenzae by CLSI M7-A7 method
Streptococcus pneumoniae [24] = assay: Antibacterial activity against non-levofloxacin susceptible Streptococcus pneumoniae by CLSI M100-S18 method
[25] = Antibacterial activity against Lancefield Streptococcus sp. 'group G' by CLSI M100-S18 method
Streptococcus salivarius [26] = assay: Antibacterial activity against Streptococcus salivarius by CLSI M100-S18 method
[27] = system: Streptococcus intermedius; assay: Antibacterial activity against Streptococcus intermedius by CLSI M100-S18 method
Streptococcus pyogenes = assay: Antibacterial activity against Streptococcus pyogenes by CLSI M100-S18 method
Streptococcus anginosus [28] = assay: Antibacterial activity against Streptococcus anginosus by CLSI M100-S18 method
Neisseria meningitidis [29] = assay: Antibacterial activity against Neisseria meningitidis assessed as percent susceptible isolates by CLSI M7-A7 method
[30] = system: Streptococcus constellatus; assay: Antibacterial activity against Streptococcus constellatus by CLSI M100-S18 method

Q: Which results are given for `CC1(C)S[C@@H]2[C@H](NC(=O)Cc3ccccc3)C(=O)N2[C@H]1C(=O)O` [PENICILLIN G]?
A: Activity (Listeria monocytogenes [1]): 100%; Activity (Streptococcus pneumoniae [2]): 100%; MIC50 (Streptococcus sanguinis [3]): 16 µg/mL (≈ 47.8 µM); MIC90 (Streptococcus sanguinis [3]): 32 µg/mL (≈ 95.7 µM); Activity (Haemophilus influenzae [4]): inactive; Activity (Streptococcus oralis [5]): 53.2%; MIC50 (Streptococcus mitis [6]): 16 µg/mL (≈ 47.8 µM); MIC90 (Streptococcus mitis [6]): 32 µg/mL (≈ 95.7 µM); Activity (Streptococcus anginosus [7]): 53.2%; MIC (Neisseria meningitidis [8]): ≤ 0.06 µg/mL; MIC50 (Neisseria meningitidis [8]): ≤ 0.06 µg/mL; MIC90 (Neisseria meningitidis [8]): 0.12 µg/mL (≈ 0.359 µM); Activity [9]: 53.2%; MIC50 (Listeria monocytogenes [10]): 0.25 µg/mL (≈ 0.748 µM); MIC90 (Listeria monocytogenes [10]): 0.25 µg/mL (≈ 0.748 µM); Activity (Streptococcus salivarius [11]): 53.2%; MIC50 (Streptococcus equinus [12]): 16 µg/mL (≈ 47.8 µM); MIC90 (Streptococcus equinus [12]): 32 µg/mL (≈ 95.7 µM); MIC50 (Haemophilus influenzae [13]): 1 µg/mL (≈ 2.99 µM); MIC90 (Haemophilus influenzae [13]): 2 µg/mL (≈ 5.98 µM); Activity (Streptococcus equinus [14]): 53.2%; MIC50 (Streptococcus oralis [15]): 16 µg/mL (≈ 47.8 µM); MIC90 (Streptococcus oralis [15]): 32 µg/mL (≈ 95.7 µM); Activity (Haemophilus influenzae [16]): inactive; MIC50 [17]: 8 µg/mL (≈ 23.9 µM); MIC90 [17]: 16 µg/mL (≈ 47.8 µM); Activity (Streptococcus mitis [18]): 53.2%; MIC50 (Streptococcus sp.): 8 µg/mL (≈ 23.9 µM); MIC90 (Streptococcus sp.): 16 µg/mL (≈ 47.8 µM); Activity [19]: 53.2%; Activity (Streptococcus pneumoniae [20]): 100%; Activity (Streptococcus sanguinis [21]): 53.2%; MIC (Streptococcus pneumoniae [22]): ≤ 0.06 µg/mL; MIC50 (Streptococcus pneumoniae [22]): ≤ 0.06 µg/mL; MIC90 (Streptococcus pneumoniae [22]): 0.5 µg/mL (≈ 1.5 µM); MIC50 (Haemophilus influenzae [23]): 0.5 µg/mL (≈ 1.5 µM); MIC90 (Haemophilus influenzae [23]): > 4 µg/mL; MIC50 (Streptococcus pneumoniae [24]): 0.12 µg/mL (≈ 0.359 µM); MIC90 (Streptococcus pneumoniae [24]): 2 µg/mL (≈ 5.98 µM); MIC50 [25]: 8 µg/mL (≈ 23.9 µM); MIC90 [25]: 16 µg/mL (≈ 47.8 µM); MIC50 (Streptococcus salivarius [26]): 16 µg/mL (≈ 47.8 µM); MIC90 (Streptococcus salivarius [26]): 32 µg/mL (≈ 95.7 µM); MIC50 [27]: 16 µg/mL (≈ 47.8 µM); MIC90 [27]: 32 µg/mL (≈ 95.7 µM); MIC (Streptococcus pyogenes): ≤ 0.015 µg/mL; MIC50 (Streptococcus pyogenes): ≤ 0.015 µg/mL; MIC90 (Streptococcus pyogenes): ≤ 0.015 µg/mL; MIC50 (Streptococcus anginosus [28]): 0.06 µg/mL (≈ 0.179 µM); MIC90 (Streptococcus anginosus [28]): 1 µg/mL (≈ 2.99 µM); Activity (Neisseria meningitidis [29]): 50%; MIC50 [30]: 16 µg/mL (≈ 47.8 µM); MIC90 [30]: 32 µg/mL (≈ 95.7 µM)
